Measured values taken from publication PMC4941374, “Therapy of pancreatic cancer via an EphA2 receptor-targeted delivery of gemcitabine” (Oncotarget, 2016).
“Also recorded” adds a separate entry of the source.

Experiments:
pancreatic cancer = settings: 126 patients, 63 per group; ref [3]; cited from earlier work
Description: In 1997, Burris, et al. published a clinical study comparing Gemcitabine to 5-Fluoruracil (5-FU) for the treatment of pancreatic cancer. In this study, 126 patients were enrolled with 63 per treatment group. […] The median survival was 5.65 months for Gemcitabine and 4.41 months for 5-FU. […] This trial encouraged the ...

[1] = test system: EphA3 ligand binding domain (EphA3-LBD); test: Isothermal titration calorimetry (ITC), EphA3 LBD; settings: 50 mM phosphate buffer pH 6.5, 100 mM NaCl, ~50% sequence identity with the EphA2 LBD
Method: (§1) To further verify the binding affinity and selectivity of the resulting conjugates for the EphA2 ligand binding domain (LBD), we expressed and purified EphA2 and […]. These proteins were dissolved to a final concentration of 100 μM in 50 mM phosphate buffer (pH = 6.5), containing 100 mM NaCl.
(§2) All linear peptides and peptide mimetics were assembled using standard Fmoc peptide synthesis protocol with the Rink amide resin on 433A Peptide Synthesizer (Applied Bio-Systems). In general, in each coupling reaction, approximately 10 equivalents of Fmoc-amino acid, 0.45 M solution of HOBt/HBTU (9 equiv) in DMF, 2 M solution of DIEA in NMP were used, for about 9 minutes. Fmoc de-protection was performed with 20% piperidine in DMF for 10 min. Each peptide was subsequently cleaved from the resin and all protecting groups removed by exposure to a 94% TFA, 2 % water, 2% tri-isopropylsilane, 2% phenol mixture for approximately 3 h. The TFA mixture was subsequently removed under reduced pressure and the peptides were precipitated in diethyl ether, centrifuged, and washed with diethyl ether prior to drying in high vacuum. The crude peptides were purified by preparative reverse phase HPLC. The final compounds were characterized by NMR and MALDI-Mass. […] EphA2-LBD and EphA3-LDB were expressed as reported recently. […]

[2] = biological target: T1, EphA2 ligand binding domain (EphA2-LBD) (Homo sapiens, UniProt P29317); test: Isothermal titration calorimetry (ITC), EphA2 LBD; settings: 50 mM phosphate buffer pH 6.5, 100 mM NaCl, as given in legend
T1 construct: made in house
Method: as §1, §2

[3] = test system: MIA PaCa-2-luc pancreatic cancer xenografts; test: MIA PaCa-2-luc subcutaneous xenograft, 123B9-L2-Gem study; format: in vivo, human tumor cells in athymic nude mice
Method: Similarly, in a separate experiment we compared the efficacy of equimolar doses of Gemcitabine and 123B9-L2-Gem (Figure 3C, 3D).
(§3) Isothermal Titration Calorimetry (ITC) measurements were obtained with Model ITC200 from Microcal/GE Life Sciences. For in vivo studies, all drugs were diluted in 10% Tween-80, 10% DMSO, and 80% PBS.
(§4) 5 × 10^6 MIA PaCa-2-luciferase cells were used to establish bilateral subcutaneous tumors on the flanks of 8–10 week old male athymic nude mice. Studies were done as previously described. Treatment began when tumors reached a palpable size (∼50–100 mm^3) with 9 mice per group. All drugs were administered by tail vein injection twice per week for 4 weeks, for a total of 8 injections. […] BLI measurements were performed at the beginning and end of the study. During imaging, mice were placed in the imaging chamber and maintained with 2% isoflurane gas anesthesia at a flow rate of approximately 0.5–1 L/min per mouse. Anesthetized mice were injected IP with 150 mg/kg body weight D-Luciferin (Xenogen Corporation, Alameda, CA). After approximately 10 min, mice were imaged using a charge-coupled-device (CCD) camera coupled to the Xenogen in vivo imaging (IVIS) imaging system (Caliper Life Sciences, Inc., Hopkinton, MA).
Tumors were measured twice per week using calipers. […]

[4] = test system: metastatic pancreatic cancer; set-up: method as in PMID 24131140; settings: 861 patients, ref [36]; cited from earlier work
Description: There is a vital need to develop novel therapies that provide greater clinical benefit to patients without undue toxicity. A Phase 3 clinical study in patients with metastatic pancreatic cancer evaluated nab-Paclitaxel (Abraxane) + Gemcitabine versus Gemcitabine alone in a total of 861 patients.

hENT1 = test system: hENT1; set-up: method as in PMID 22978251; settings: sodium-independent transporter; ref [4]; cited from earlier work
Description: (§5) Though there are multiple mechanisms of Gemcitabine resistance, one important mechanism revolves around expression of this protein. […] Patients with higher hENT1 expression have tumors that can more readily take ...

[5] = test system: MIA PaCa-2-luc pancreatic cancer xenografts; test: MIA PaCa-2-luc subcutaneous xenograft, YNH-L2-Gemcitabine study; format: in vivo, human tumor cells in athymic nude mice; settings: for effect on tumor growth: 10 mg/kg Gemcitabine or equimolar conjugate, tail vein, twice per week for 4 weeks, 9 mice/group, caliper tumor volume and BLI; for survival time: Kaplan-Meier, days, mice sacrificed when moribund, Supplementary Figure S2 top
Method: MIA PaCa-2-luc cells were used to create bilateral subcutaneous xenografts in athymic nude mice. […] Cells were injected into each flank and then allowed to grow for approximately 1 week. At this point, mice were imaged using BLI and treatment was subsequently initiated. Mice were divided into 4 groups (PBS, Gemcitabine, YDH-L2-Gemcitabine, YNH-L2-Gemcitabine) with 9 mice/group. YDH-L2-Gemcitabine is a scrambled control, where the peptide attached to Gemcitabine should not be specific for EphA2 and, therefore, should not bind to the receptor. Animals were treated 2 times per week via tail vein injection for 4 weeks. A dose of 10 mg/kg Gemcitabine was used along with equimolar doses of YDH-L2-Gemcitabine and YNH-L2-Gemcitabine. At the end of 4 weeks, animals were again imaged and treatment was ended.
as §3, §4
Tumors were measured twice per week using calipers. For in vivo studies, data shown are the mean + SEM and for statistical comparisons we used the two-way Anova analyses (GraphPad). After their last injection, mice were kept for 1 additional week to monitor tumor growth and imaged at the end of that week. The mice were then kept to monitor for the effects of treatment on survival. Mice were kept until reaching a moribund status and they were then sacrificed at that time.

tumors expressing hENT1 = test system: tumors expressing hENT1; set-up: method as in PMID 16818496; settings: high versus lower hENT1 expression; ref [5]; cited from earlier work
Description: as §5

T1 sequence (P29317 28-206 limits assumed): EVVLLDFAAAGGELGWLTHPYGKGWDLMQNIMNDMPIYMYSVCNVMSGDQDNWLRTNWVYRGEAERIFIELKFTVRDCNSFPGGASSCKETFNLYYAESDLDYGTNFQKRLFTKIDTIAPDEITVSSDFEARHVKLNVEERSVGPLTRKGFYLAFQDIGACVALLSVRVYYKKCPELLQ

Compound	median survival (pancreatic cancer)	patients alive at 12-month time point (pancreatic cancer)	patients with clinical benefit (pancreatic cancer)	binding to EphA3 LBD (in words) [1]	effect on tumor growth [5]	survival time [5]	further results
O=c1[nH]cc(F)c(=O)[nH]1 [5-FU, 5-Fluoruracil]	4.41 months	2%	4.8%				
CCCC[C@H](NC(=O)[C@@H]1CCCN1C(=O)[C@@H](NC(=O)[C@H](CO)NC(=O)[C@H](CC(=O)O)NC(=O)[C@@H]1CCCN1C(=O)[C@H](Cc1ccc(O)cc1)NC(=O)[C@H](C)NC(=O)[C@H](CO)NC(=O)COc1ccc(F)c(Cl)c1)C(C)C)C(=O)N[C@@H](CCO)C(=O)N[C@@H](CO)C(=O)N[C@@H](CCCCNC(=O)CCCc1cn(CCCCCC(=O)O[C@@H]2[C@@H](CO)O[C@@H](n3ccc(N)nc3=O)C2(F)F)nn1)C(N)=O [123B9-L2-Gem]				No appreciable binding was detected			ΔH, binding to EphA2 LBD [2]: -11 kcal/mol; survival time ([3]; Kaplan-Meier, days, mice sacrificed when moribund, Supplementary Figure S2 bottom): significantly longer than both untreated and Gemcitabine treated groups; also recorded: significant increase in survival time; also recorded: prolong survival; effect on tumor growth ([3]; equimolar doses, equivalent of 10 mg/Kg Gemcitabine, tail vein, twice per week for 4 weeks, caliper tumor volume and BLI, 10 mg/kg): significantly more effective than gemcitabine alone in suppressing tumor growth; also recorded: significant efficacy was observed
Nc1ccn([C@@H]2O[C@H](CO)[C@@H](O)C2(F)F)c(=O)n1 [Gemcitabine]	5.65 months	18%	23.8%		had a modest effect on tumor growth; also recorded: did not exhibit significant efficacy compared to mice treated with vehicle only as control	significant increase in the median survival time compared to untreated mice	median survival [4]: 6.7 months; response rate [4]: 7%; survival rate at 1 year [4]: 22%; survival rate at 2 years [4]: 4%; transport by hENT1 (hENT1): preferentially transport Gemcitabine; survival advantage with high tumor hENT1 expression (tumors expressing hENT1): greater survival advantage with Gemcitabine treatment as compared to those with lower hENT1 expression
CCCC[C@H](NC(=O)[C@@H]1CCCN1C(=O)[C@@H](NC(=O)[C@H](CO)NC(=O)[C@H](CC(=O)O)NC(=O)[C@@H]1CCCN1C(=O)[C@H](Cc1ccc(O)cc1)NC(=O)[C@H](C)NC(=O)[C@H](CO)NC(=O)[C@@H](N)Cc1ccc(O)cc1)C(C)C)C(=O)N[C@@H](CCO)C(=O)N[C@@H](CO)C(=O)N[C@@H](CCCCNC(=O)CCCc1cn(CCCCCC(=O)O[C@@H]2[C@@H](CO)O[C@@H](n3ccc(N)nc3=O)C2(F)F)nn1)C(N)=O [YNH-L2-Gem]				No appreciable binding was detected	significant efficacy was observed	prolong survival	effect on tumor growth ([5]; listed as YNH-L2-Gemcitabine): showed the greatest inhibition of tumor growth of all groups evaluated; also recorded: inhibits tumor growth in vivo to a greater extent as compared to Gemcitabine; survival time ([5]; listed as YNH-L2-Gemcitabine): significant increase in the median survival time compared to untreated mice
